Legend:
[1] = tested on: BT474 breast cancer cells; assay: Transwell cell migration assay, BT474; assay type: cell-based; details: 30 min pretreatment, PMA 4 h or 24 h
Description: Briefly, cells (10^4/well) were seeded on the upper chamber (6.5-mm insert, 8-μm polycarbonate membrane; Corning Inc.), which was placed in each well of a 24-well plate. The lower chamber was filled with 700 μL DMEM supplemented with 10% FBS. For assessment of in vitro invasion, cells were seeded onto the upper chamber insert coated with Matrigel (BD Biosciences) under the same conditions as the transwell migration assays. At the indicated time, nonmigrated cells that remained at the top surface of the insert were removed with a cotton swab. Cells that migrated to the lower membrane surface and cells that invaded through the matrigel gel to the underside of the membrane were fixed, stained with 0.1% crystal violet for 20 min, and counted under light microscopy. All of the assays were done in triplicate with excellent reproducibility.
Lung cancer A549 and breast cancers BT474 and T47D cells were pretreated with different concentrations of 5-MTP or 5-MTPE for 30 min, then stimulated with PMA for 4 h or 24 h. Cell migration was measured by the transwell migration assay.

COX-2 promoter = assay: COX-2 promoter-luciferase assay in RAW264.7 cells; assay type: cell-based, mouse; details: for LPS-induced COX-2 promoter activity (luciferase): LPS 8 h
Description: RAW264.7 macrophages were cotransfected with COX-2 promoter-luciferase, IL-6 promoter-luciferase constructs as previously described (Lee, G. L., et al.) or p5xNF-κB-luciferase (Stratagene) and pcDNA3.1-β-galactosidase plasmids using FuGENE 6 (Roche). After overnight transfection, the cells were incubated with or without LPS in the presence or absence of 5-MTP for 8 h. After treatment, cells were lysed, and luciferase activity was measured using an assay kit (Promega). β-galactosidase activity was used to normalize the data.
After pretreating mouse macrophage RAW264.7 cells with different concentrations of 5-MTP for 30 min, cells were stimulated with LPS for 8 h. Cell lysates were immunoblotted with antibodies for COX-2 or β-actin. In addition, RAW264.7 cells were transfected with COX-2 promoter-luciferase plasmid. After 24 h transfection, the cells were incubated with LPS for 8 h. Luciferase activity was measured. The experiments were repeated 3 times with similar results. The results shown in FIGS. 3A-3B confirmed that 5-MTP blocked LPS-induced COX-2 protein expression and promoter activity in a concentration-dependent manner in RAW264.7 cells.
(§1) Herein, after pretreating RAW264.7 cells with different concentrations of 5-MTP, 5-MTPE, COX-2 inhibitors (NSC398 or SC560) and NF-κB inhibitor JSH-23 for 30 min, cells were stimulated with LPS. In addition, RAW264.7 cells were also transfected with COX-2 promoter-luciferase plasmid. After 24 h transfection, the cells were incubated with LPS for 8 h. Luciferase activity as measured.

IL-6 = assay: LPS-induced IL-6 level in RAW264.7 culture supernatants (ELISA); assay type: cell-based, mouse; details: RAW264.7 cells; for LPS-induced IL-6 level in culture supernatants: 30 min pretreatment, LPS 24 h
Description: Mouse RAW264.7 macrophages were from the American Type Culture Collection and cultured in DMEM containing 10% FBS. […] The duration of LPS (100 ng/ml) treatment varied depending on the experiment.
Moreover, RAW264.7 cells and IL-6 promoter-luciferase plasmid transfected RAW264.7 cells were pretreated with different concentrations of 5-MTP for 30 min, followed by LPS stimulation for 8 h. IL-6 promoter activity was measured by luciferase assay. IL-6 level in culture supernatants was measured by ELISA.
Furthermore, RAW264.7 cells were treated with different concentrations of 5-MTP or 5-MTPE for 24 h. Cell viability was determined by MTT assay. In another experiment, after pretreating RAW264.7 cells with different concentrations of 5-MTP or 5-MTPE for 30 min, cells were stimulated with LPS for 24 h. IL-6 level in culture supernatants was measured by ELISA.
as §1

LPS-induced endotoxemia = assay type: in vivo
Description: C57BL/6 mice (6-8 wks old) were treated intraperitoneally with saline or with different concentrations of 5-MTP (23.4 or 100 mg/kg) for 30 min before intraperitoneal administration of LPS (60 mg/kg). Animals were monitored for survival and other clinical signs including ruffled fur, lethargy, diarrhea, and body weight loss. Some animals were sacrificed at different times after LPS injection. Blood samples, peritoneal exudates, lungs, and spleens were collected. All mouse experiments were approved by the institutional Animal Care and Use Committee, National Health Research Institutes.
Since suppression of 5-MTP by endotoxemia could contribute to uncontrolled macrophage overproduction of proinflammatory cytokines and mediators, we determined whether exogenous 5-MTP administration rescues mice from LPS-induced systemic inflammation, organ damage and mortality. Mice were injected with saline, 5-MTP (23.4 mg/kg), 5-MTPE (25 mg/kg) or vehicle for 30 min, followed by LPS (60 mg/kg) (saline, n=25; 5-MTP, n=7; 5-MTPE, n=7; LPS, n=30; LPS+5-MTP, n=25; LPS+5-MTPE, n=25). Survival was monitored during the next 72 h. *P<0.001 compared to LPS treatment.

[2] = tested on: vascular smooth muscle cells; assay: Calcifying medium-induced calcification in vascular smooth muscle cells; assay type: cell-based
Text: Vascular smooth muscle cell (VSMC) calcification is the major phenomenon to induce atherosclerotic vascular calcification in cardiovascular disease (CVD). We next investigated the effect of 5-MTP derivatives on VSMC calcification.

[3] = 5-MTP 23.4 mg/kg 30 min before LPS 60 mg/kg

COC(=O)C(N)Cc1c[nH]c2ccc(OC)cc12 (stereo not shown) [5-MTPE, ester-5-MTP]
PMA-induced BT474 cell migration [1]: abrogated | COX-2 suppressive activity compared with JSH-23 (COX-2 promoter; LPS): potent than that of NF-κB inhibitor JSH-23 | LPS-induced COX-2 promoter activity (luciferase) (COX-2 promoter): dose-dependently blocked | LPS-induced IL-6 level in culture supernatants (IL-6): significantly inhibited | LPS-induced IL-6 level in culture supernatants (IL-6; listed as 5MTPE): dose-dependently blocked | suppressive capacity on IL-6 production in comparison with 5-MTP, COX-2 inhibitors (IL-6; 24 h after LPS): better suppressive capacity | IL-6 suppressive activity compared with JSH-23 (IL-6; LPS): potent than that of NF-κB inhibitor JSH-23 | protective capacity in LPS-induced lethal endotoxemia (LPS-induced endotoxemia; 5-MTPE 25 mg/kg 30 min before LPS 60 mg/kg, 72 h): 100% | calcifying medium-induced calcification [2]: reduced

COc1ccc2[nH]cc(C[C@H](N)C(=O)O)c2c1 [5-MTP, 5-methoxytryptophan]
PMA-induced BT474 cell migration [1]: abrogated | LPS-induced COX-2 promoter activity (luciferase) (COX-2 promoter): dose-dependently blocked | LPS-induced IL-6 level in culture supernatants (IL-6): dose-dependently blocked | LPS-induced IL-6 protein expression (IL-6; LPS 8 h): inhibited | endotoxemic mice died at day 3 (LPS-induced endotoxemia; [3]): 20% | mice died at day 1 (LPS-induced endotoxemia; [3]): none | calcifying medium-induced calcification [2]: reduced

Reference: patent US10577322B2, “5-methoxytryptophan and its derivatives and uses thereof” (National Health Research Institutes, priority 2015, dated 2020)
